Results taken from patent publication US20230083015A1, “SMALL MOLECULE DEGRADERS OF STAT3” (THE REGENTS OF THE UNIVERSITY OF MICHIGAN, priority 2019, published 2023).
Like-named read-outs stand apart in the source and are kept apart here.

What was measured:
STAT3 = STAT3 (Homo sapiens, UniProt P40763); assay: Estimated DC50 for STAT3 degradation in MOLM-16 cells (immunoblotting); assay type: cell-based; design: In vitro cultured cells or xenograft tumors were lysed; endogenous in cells; host or cells: MOLM-16
Protocol: (§1) FIG. 62 is a series of four images showing the fluorescent immunoblotting analysis of STAT1 and STAT3 protein in Molm-16 cells after treatment for 4 h with Cpd. Nos. 331, 296, 361, 362, 363, 364, 365, 366, and 367 at the concentrations indicated.
(§2) In vitro cultured cells or xenograft tumors were lysed 1× Cell Lysis Buffer (Cell Signaling Technology, #9803), resolved by SDS-PAGE NuPAGE gel (Thermo Fisher Scientific), and transferred to a PVDF membrane (Bio Rad). For chemiluminescence immunoblotting, membranes were blocked for 1 h using 5% Blotting-Grade Blocker (#1706404, Bio Rad) in 1× Tris-buffered saline with Tween 20 (TBST, Pierce). Antibodies used were: rabbit mAbs for STAT3 (Cell Signaling Technology, #4368, #12640) and p-STAT3 (Y705) (Cell Signaling Technology, #9245, #52075). HRP conjugated goat anti-rabbit IgG (H+L) (#A27036) secondary antibodies was from Thermo Fisher Scientific. GAPDH (Santa Cruz Technology, sc-47724HRP) and actin (Santa Cruz Technology, sc-8432HRP, sc-47778HRP) were loading controls. For fluorescent immunoblotting, membranes were blocked using Odyssey TBS Blocker Buffer (LI-COR). IRDye 680RD and 800CW Dye-labeled secondary antibodies (LI-COR) were used. The washed membranes were scanned using Odyssey CLx imager (LI-COR). The intensity of Western blot signaling was quantitated using the Odyssey software.
(§3) The estimated DC50 in MOLM-16 cells of representative Compounds of the Disclosure against STAT3 and STAT1 is provide in Table 5.

STAT1 = target: T1, STAT1 (Homo sapiens, UniProt P42224); assay: Estimated DC50 for STAT1 degradation in MOLM-16 cells (immunoblotting); assay type: cell-based
T1 construct: In vitro cultured cells or xenograft tumors were lysed; endogenous in cells; host or cells: MOLM-16
T1 sequence (P42224 1-750): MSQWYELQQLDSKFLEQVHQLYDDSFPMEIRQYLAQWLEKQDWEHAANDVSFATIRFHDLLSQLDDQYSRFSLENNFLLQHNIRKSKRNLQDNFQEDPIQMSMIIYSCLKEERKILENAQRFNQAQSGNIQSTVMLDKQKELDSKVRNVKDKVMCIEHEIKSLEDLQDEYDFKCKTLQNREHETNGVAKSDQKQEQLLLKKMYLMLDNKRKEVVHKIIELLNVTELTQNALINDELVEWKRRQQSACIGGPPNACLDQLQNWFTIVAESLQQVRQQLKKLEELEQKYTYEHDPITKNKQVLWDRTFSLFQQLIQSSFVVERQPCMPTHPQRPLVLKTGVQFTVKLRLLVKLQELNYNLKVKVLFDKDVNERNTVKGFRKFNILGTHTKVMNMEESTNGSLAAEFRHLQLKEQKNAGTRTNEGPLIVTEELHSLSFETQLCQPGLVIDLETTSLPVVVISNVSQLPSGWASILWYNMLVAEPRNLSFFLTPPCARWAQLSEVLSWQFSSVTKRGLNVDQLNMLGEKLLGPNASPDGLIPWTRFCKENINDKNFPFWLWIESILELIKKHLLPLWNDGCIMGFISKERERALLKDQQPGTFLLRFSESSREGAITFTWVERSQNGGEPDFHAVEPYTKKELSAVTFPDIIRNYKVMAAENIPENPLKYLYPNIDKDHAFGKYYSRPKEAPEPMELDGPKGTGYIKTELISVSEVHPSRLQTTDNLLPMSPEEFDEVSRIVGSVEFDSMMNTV
Protocol: as §1, §2, §3

[1] = MOLM-16, 4 h; read-out: Estimated DC50 STAT3
[2] = MOLM-16, 4 h; read-out: Estimated DC50 STAT1

Chain of STAT3 (P40763 whole entry): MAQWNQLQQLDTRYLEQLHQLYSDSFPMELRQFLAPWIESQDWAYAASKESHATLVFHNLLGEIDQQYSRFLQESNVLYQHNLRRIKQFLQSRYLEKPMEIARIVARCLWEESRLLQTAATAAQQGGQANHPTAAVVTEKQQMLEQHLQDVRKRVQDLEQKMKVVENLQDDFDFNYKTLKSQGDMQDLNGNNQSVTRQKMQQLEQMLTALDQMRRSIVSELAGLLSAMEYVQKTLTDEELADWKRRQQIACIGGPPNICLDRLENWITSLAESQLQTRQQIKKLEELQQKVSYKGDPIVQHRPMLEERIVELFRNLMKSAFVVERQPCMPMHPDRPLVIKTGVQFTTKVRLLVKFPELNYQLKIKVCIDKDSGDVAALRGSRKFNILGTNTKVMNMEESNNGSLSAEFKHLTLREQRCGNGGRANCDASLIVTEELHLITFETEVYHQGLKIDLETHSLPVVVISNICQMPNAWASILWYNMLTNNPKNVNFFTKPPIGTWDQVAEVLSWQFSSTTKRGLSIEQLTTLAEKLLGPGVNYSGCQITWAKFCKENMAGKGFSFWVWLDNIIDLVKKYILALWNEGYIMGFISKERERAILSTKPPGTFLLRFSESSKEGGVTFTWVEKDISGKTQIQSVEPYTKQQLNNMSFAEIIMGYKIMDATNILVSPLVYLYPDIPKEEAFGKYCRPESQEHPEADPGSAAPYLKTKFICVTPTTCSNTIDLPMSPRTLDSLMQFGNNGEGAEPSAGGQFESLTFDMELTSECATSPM

| SMILES | DC50 (STAT3; [1]) [µM] | DC50 (STAT1; read-out: Estimated DC50 STAT1; MOLM-16, 4 h) [µM] | DC50 (STAT3; read-out: Estimated DC50 STAT3; MOLM-16, 4 h) [µM] | DC50 (STAT1; [2]) [µM] |
| --- | --- | --- | --- | --- |
| NC(=O)CC[C@H](NC(=O)[C@@H]1CC[C@@H]2CCN(C(=O)CCCCCC#Cc3cccc4c3CN(C3CCC(=O)NC3=O)C4=O)C[C@H](NC(=O)c3cc4cc(C(F)(F)P(=O)(O)O)ccc4s3)C(=O)N21)C(=O)NC(Cc1ccccc1)Cc1ccccc1 (stereo partly drawn) [Cpd. No. 349, ((2-(((5S,8S,10aR)-8-(((S)-5-amino-1-((1,3-diphenylpropan-2-yl)amino)-1,5-dioxopentan-2-yl)carbamoyl)-3-(8-(2-(2,6-dioxopiperidin-3-yl)-1-oxoisoindolin-4-yl)oct-7-ynoyl)-6-oxodecahydropyrrolo[1,2-a][1,5]diazocin-5-yl)carbamoyl)benzo[b]thiophen-5-yl)difluoromethyl) phosphonic acid] | 0.2 |  |  |  |
| CCN1CC[C@H]2CC[C@@H](C(=O)N[C@@H](CCC(N)=O)C(=O)N[C@@H](Cc3ccc(S(=O)(=O)c4ccccc4)cc3)C(=O)N3CCC(CCC#Cc4cccc5c4CN(C4CCC(=O)NC4=O)C5=O)CC3)N2C(=O)[C@@H](NC(=O)c2cc3cc(C(F)(F)P(=O)(O)O)ccc3s2)C1 (stereo partly drawn) [Cpd. No. 352] |  | 0.25 | < 0.25 |  |
| CCN1CC[C@H]2CC[C@@H](C(=O)N[C@@H](CCC(N)=O)C(=O)N[C@@H](Cc3ccc(S(=O)(=O)C4CC4)cc3)C(=O)N3CCC(CCC#Cc4cccc5c4CN(C4CCC(=O)NC4=O)C5=O)CC3)N2C(=O)[C@@H](NC(=O)c2cc3cc(C(F)(F)P(=O)(O)O)ccc3s2)C1 (stereo partly drawn) [Cpd. No. 353, ((2-(((5S,8S,10aR)-8-(((2S)-5-amino-1-(((2S)-3-(4-(cyclopropylsulfonyl)phenyl)-1-(4-(4-(2-(2,6-dioxopiperidin-3-yl)-1-oxoisoindolin-4-yl)but-3-yn-1-yl)piperidin-1-yl)-1-oxopropan-2-yl)amino)-1,5-dioxopentan-2-yl)carbamoyl)-3-ethyl-6-oxodecahydropyrrolo[1,2-a][1,5]diazocin-5-yl)carbamoyl)benzo[b]thiophen-5-yl)difluoromethyl)phosphonic Acid] | < 0.25 |  |  | 0.5 |
| CCN1CC[C@H]2CC[C@@H](C(=O)N[C@@H](CCC(N)=O)C(=O)N[C@@H](Cc3ccc(NS(=O)(=O)c4ccc(C)cc4)cc3)C(=O)N3CCC(CCC#Cc4cccc5c4CN(C4CCC(=O)NC4=O)C5=O)CC3)N2C(=O)[C@@H](NC(=O)c2cc3cc(C(F)(F)P(=O)(O)O)ccc3s2)C1 (stereo partly drawn) [Cpd. No. 354, ((2-(((5S,8S,10aR)-8-(((2S)-5-amino-1-(((2S)-1-(4-(4-(2-(2,6-dioxopiperidin-3-yl)-1-oxoisoindolin-4-yl)but-3-yn-1-yl)piperidin-1-yl)-3-(4-((4-methylphenyl)sulfonamido)phenyl)-1-oxopropan-2-yl)amino)-1,5-dioxopentan-2-yl)carbamoyl)-3-ethyl-6-oxodecahydropyrrolo[1,2-a][1,5]diazocin-5-yl)carbamoyl)benzo[b]thiophen-5-yl)difluoromethyl)phosphonic Acid] | < 0.25 |  |  | 0.25 |
| CCN1CC[C@H]2CC[C@@H](C(=O)N[C@@H](CCC(N)=O)C(=O)N[C@@H](Cc3ccc(NS(=O)(=O)c4ccc(C5CCCCC5)cc4)cc3)C(=O)N3CCC(CCC#Cc4cccc5c4CN(C4CCC(=O)NC4=O)C5=O)CC3)N2C(=O)[C@@H](NC(=O)c2cc3cc(C(F)(F)P(=O)(O)O)ccc3s2)C1 (stereo partly drawn) [Cpd. No. 357, ((2-(((5S,8S,10aR)-8-(((2S)-5-amino-1-(((2S)-3-(4-((4-cyclohexylphenyl)sulfonamido)phenyl)-1-(4-(4-(2-(2,6-dioxopiperidin-3-yl)-1-oxoisoindolin-4-yl)but-3-yn-1-yl)piperidin-1-yl)-1-oxopropan-2-yl)amino)-1,5-dioxopentan-2-yl)carbamoyl)-3-ethyl-6-oxodecahydropyrrolo[1,2-a][1,5]diazocin-5-yl)carbamoyl)benzo[b]thiophen-5-yl)difluoromethyl) phosphonic acid] | 0.5 |  |  | > 1 |
